According to ChEMBL document CHEMBL1152076, “Alteration of Na+ permeability in human erythrocytes as studied by 23Na-NMR and inhibition of the kidney Na+,K+-ATPase activities with saponins: Interaction of Gleditsia saponins with human erythrocyte membranes” (Bioorg Med Chem Lett, 1995):

Target: Sodium/potassium-transporting ATPase (Rattus norvegicus)
Assay: Inhibitory activity against rat kidney Na+/K+ ATPase was determined by fiske subbarow method

Question: With `C=C[C@@](C)(O)CC/C=C(\C)C(=O)OC1C(COCCCC2OC(CCCOOC(=O)C34CCC(C)(C)CC3C3=CCC5[C@@]6(C)CCC(OC7OC(CCOCCC8OCC(O)C(O)C8OC8OCC(O)C(O)C8O)C(O)C(O)C7O)C(C)(C)C6CC[C@@]5(C)[C@]3(C)C[C@H]4O)C(OCC3OC(C)C(OCCCCCCCCC4OCC(O)C(OC5OCC(O)C(O)C5O)C4O)C(O)C3O)C(O)C2O)OC(C)C(O)C1OC(=O)/C(=C/CC[C@](C)(O)C=C)CO` (stereo partly specified) as the molecule, how does the IC50 read?
Answer: 400 µM
